Data on ten compounds can be found in patent US20220324860A1, “SUBSTITUTED PYRAZOLO[4,3-b]PYRIDINES AND THEIR USE AS GLUN2B RECEPTOR MODULATORS” (JANSSEN PHARMACEUTICA NV, priority 2019, published 2022).

SMILES strings stand for the structures.

This data set in a line: Liver microsomal stability (extraction ratio). It is filed as in vitro ADME. The following applies: test compound 1 μM; 0.5 mg/mL liver microsomes, NADPH 1 mM, 37° C.; predicted hepatic clearance (well-stirred model) divided by species blood flow; species not given. How it is done: Protocol for Liver Microsomal Stability (Extraction Ratio)
Liver Microsomal Stability. Microsomal stability studies (Chrovian et al, “1H-Pyrrolo[3,2-b]pyridine GluN2B-Selective Negative Allosteric Modulators”. ACS Med Chem Lett. 2019 Jan. 10; 10(3):261-266) were conducted on a Biomek® FX Robotic Liquid Handling Workstation (Beckman Coulter, Brea, Calif.), which consists of a 96-channel pipette head, a 12-position workstation deck, and a plate incubator. Test compounds (1 μM) were spiked in a reaction mix consisting of 100 mM potassium phosphate buffer (pH 7.4), 3 mM MgCl2, and 0.5 mg/mL liver microsomes from mouse, rat, and human (BD Gentest). The reaction was brought to 37° C. and initiated by adding NADPH to a final concentration of 1 mM. After mixing on the plate deck, 50 μL aliquots were excised from the reaction plate at 0, 5, 10, 20, 40, and 60 min and quenched with four volumes of acetonitrile spiked with […] of the internal standard phenytoin. Quenched plates were centrifuged at 5700 rpm for 10 min at 4° C., and supernatant was diluted 1:3 in water before LC/MS/MS analysis. The compound half-lives were derived from plots of the ln of percent remaining compound over time to determine the intrinsic clearance. The predicted hepatic clearance was derived from the intrinsic clearance value using equations from the well-stirred model (Current Drug Metabolism, 2008, 9, 940-951), where no correction was made plasma protein binding and the blood to plasma concentration ratio was assumed to be one. The extraction ratio (ER) was calculated by dividing the predicted hepatic clearance by species blood flow (Q), where Q is 90, 55, and 21.7 mL/min/kg for mouse, rat and human, respectively.
For `CC[S+]([O-])Cn1ncc2ncc(-c3cccc(C(F)(F)F)c3F)cc21` (racemic) [Example 86, (RS)-1-(Ethylsulfinylmethyl)-6-[2-fluoro-3-(trifluoromethyl)phenyl]pyrazolo[4,3-b]pyridine], the “Extraction Ratio @ 1 μM” value was 0.50.

With `CCN1CC(Cn2ncc3ncc(-c4ccc(F)c(C(F)F)c4)cc32)OC1=O` (racemic) [Example 131, (RS)-5-[[6-[3-(Difluoromethyl)-4-fluoro-phenyl]pyrazolo[4,3-b]pyridin-1-yl]methyl]-3-ethyl-oxazolidin-2-one], the “Extraction Ratio @ 1 μM” value was 0.58.

With `CC[S+]([O-])Cn1ncc2ncc(-c3ccc(F)c(C(F)F)c3)cc21` (single isomer, unassigned) [Example 85, (R*)-6-(3-(Difluoromethyl)-4-fluorophenyl)-1-((ethylsulfinyl)methyl)-1H-pyrazolo[4,3-b]pyridine], the “Extraction Ratio @ 1 μM” value is reported as 0.46.

For the compound `CCC(=O)Cn1ncc2ncc(-c3ccc(F)c(C(F)F)c3)cc21` [Example 4, 1-[6-[3-(Difluoromethyl)-4-fluoro-phenyl]pyrazolo[4,3-b]pyridin-1-yl]butan-2-one], the “Extraction Ratio @ 1 μM” value is 0.66.

`CC(=O)Cn1ncc2ncc(-c3ccc(F)c(OC(F)F)c3)cc21` [Example 25, 1-[6-[3-(Difluoromethoxy)-4-fluoro-phenyl]pyrazolo[4,3-b]pyridin-1-yl]propan-2-one]: the “Extraction Ratio @ 1 μM” value was 0.64.

As to `CCC(=O)Cn1nc(C)c2ncc(-c3ccc(F)c(C(F)F)c3)cc21` [Example 36, 1-(6-(3-(Difluoromethyl)-4-fluorophenyl)-3-methyl-1H-pyrazolo[4,3-b]pyridin-1-yl)butan-2-one], the “Extraction Ratio @ 1 μM” value is listed as 0.72.

`CCC(=O)Cn1ncc2ncc(-c3cccc(C(F)(F)F)c3F)cc21` [Example 38, 1-[6-[2-Fluoro-3-(trifluoromethyl)phenyl]pyrazolo[4,3-b]pyridin-1-yl]butan-2-one]: the “Extraction Ratio @ 1 μM” value is on record as 0.61.

For the compound `CCC(=O)Cn1ncc2ncc(-c3cc(F)c(F)c(F)c3)cc21` [Example 42, 1-[6-(3,4,5-Trifluorophenyl)pyrazolo[4,3-b]pyridin-1-yl]butan-2-one], the “Extraction Ratio @ 1 μM” value is given as 0.63.

Take `O=C(Cn1ncc2ncc(-c3cccc(C(F)F)c3)cc21)C1CC1` [Example 61, 1-Cyclopropyl-2-[6-[3-(difluoromethyl)phenyl]pyrazolo[4,3-b]pyridin-1-yl]ethanone]: the “Extraction Ratio @ 1 μM” value was 0.43.

In the case of `Cc1c(F)ccc(-c2cnc3cnn(CC(=O)C4CC4)c3c2)c1C` [Example 78, 1-Cyclopropyl-2-[6-(4-fluoro-2,3-dimethyl-phenyl)pyrazolo[4,3-b]pyridin-1-yl]ethanone], the “Extraction Ratio @ 1 μM” value is given as 0.52.
